{
  "source": "ChEMBL document CHEMBL5505988",
  "about": "“Thiadiazole-, selenadiazole- and triazole-fused anthraquinones as G-quadruplex targeting anticancer compounds” (Eur J Med Chem, 2024)",
  "assay": "Downregulation of c-Myc protein expression in human K562 cells assessed as reduction in mean fluorescence channel value by measuring positive events at 16 uM after 24 hrs by flow cytometry analysis (reference value: 98%)",
  "assay_type": "functional",
  "parameters": "scale not given: the % may be the effect or the level left",
  "data": [
    {"smiles": "Cl.Cl.NCCNc1c2c(c(NCCN)c3n[se]nc13)C(=O)c1ccccc1C2=O", "values": [
      {"measurement": "Activity", "result": 49, "unit": "%"}
    ]}
  ]
}
